Source: ChEMBL document CHEMBL4627407, “Identification of a Potent Oridonin Analogue for Treatment of Triple-Negative Breast Cancer” (J Med Chem, 2020)
pIC50: −log10 of the molar value. Active and inactive are the calls of the source. No cut-off for these calls is given here.

How the values were obtained:
HCC1806 [1] = assay: Induction of cell cycle arrest in human HCC1806 cells assessed as accumulation at G1 phase at 200 nM after 48 hrs by propidium iodide staining based FACScan flow cytometry (reference value: 70.74%); format: functional
NCI/ADR-RES = assay: Potency index, ratio of oridonin IC50 to compound IC50 for antiproliferative activity against human MCF7/ADR cells after 72 hrs by MTT assay; format: functional
HCC1806 [2] = assay: Induction of cell cycle arrest in human HCC1806 cells assessed as accumulation at G2/M phase at 50 nM after 48 hrs by propidium iodide staining based FACScan flow cytometry (reference value: 10.38%); format: functional
SK-BR-3 = assay: Antiproliferative activity against human SK-BR-3 cells after 72 hrs by MTT assay; format: functional, cell-based; conditions: SK-BR-3, 72 h
MDA-MB-453 = assay: Antiproliferative activity against human MDA-MB-453 cells after 72 hrs by MTT assay; format: functional, cell-based; conditions: MDA-MB-453, 72 h
HCC1806 [3] = assay: Induction of apoptosis in human HCC1806 cells assessed as viable cells at 50 uM after 48 hrs by Annexin V-FITC/propidium iodide double staining based flow cytometry (reference value: 95.7%); format: functional; conditions: HCC1806, 48 h, read-out: Activity
HCC1806 [4] = assay: Antimigratory activity against human HCC1806 cells measured up to 48 hrs by phase contrast microscopic based scratch wound healing assay; format: functional, cell-based
DU-4475 = assay: Antiproliferative activity against human DU4475 cells after 72 hrs by MTT assay; format: functional, cell-based; conditions: DU-4475, 72 h
MDA-MB-468 = assay: Antiproliferative activity against human MDA-MB-468 cells after 72 hrs by MTT assay; format: functional, cell-based; conditions: MDA-MB-468, 72 h
MDA-MB-231 = assay: Antiproliferative activity against human MDA-MB-231 cells after 72 hrs by MTT assay; format: functional, cell-based; conditions: MDA-MB-231, 72 h
HCC1806 [5] = assay: Induction of cell cycle arrest in human HCC1806 cells assessed as downregulation of cdc2 expression by western blot analysis; format: functional, cell-based
HCC1806 [6] = assay: Induction of cell cycle arrest in human HCC1806 cells assessed as downregulation of cyclin B1 expression by western blot analysis; format: functional, cell-based
HCC1806 [7] = assay: Induction of apoptosis in human HCC1806 cells assessed as early apoptotic cells at 50 uM after 48 hrs by Annexin V-FITC/propidium iodide double staining based flow cytometry (reference value: 2.16%); format: functional
HCC1806 [8] = assay: Induction of apoptosis in human HCC1806 cells assessed as necrotic cells at 50 uM after 48 hrs by Annexin V-FITC/propidium iodide double staining based flow cytometry (reference value: 1.32%); format: functional
HCC1806 [9] = assay: Induction of apoptosis in human HCC1806 cells assessed as late apoptotic cells at 100 uM after 48 hrs by Annexin V-FITC/propidium iodide double staining based flow cytometry (reference value: 0.81%); format: functional
HCC1806 [10] = assay: Induction of apoptosis in human HCC1806 cells assessed as viable cells at 200 uM after 48 hrs by Annexin V-FITC/propidium iodide double staining based flow cytometry (reference value: 95.7%); format: functional; conditions: HCC1806, 48 h, read-out: Activity
HCC1806 [11] = assay: Induction of apoptosis in human HCC1806 cells assessed as late apoptotic cells at 200 uM after 48 hrs by Annexin V-FITC/propidium iodide double staining based flow cytometry (reference value: 0.81%); format: functional
HCC1806 [12] = assay: Induction of apoptosis in human HCC1806 cells after 48 hrs by Annexin V-FITC/propidium iodide double staining based flow cytometry; format: functional, cell-based
HCC1806 [13] = assay: Induction of apoptosis in human HCC1806 cells assessed as decrease in Bcl2 expression at >= 50 nM after 48 hrs by Western blot analysis; format: functional, cell-based
[14] = Inhibition of PI3K/Akt/mTOR signalling pathway in human HCC1806 cells assessed as reduction in phosphorylated PI3K expression at Y458 residue after 48 hrs by Western blot analysis; format: cell-based
[15] = Inhibition of PI3K/Akt/mTOR signalling pathway in human HCC1806 cells assessed as reduction in phosphorylated Akt expression at S473 residue after 48 hrs by Western blot analysis; format: cell-based
[16] = Inhibition of PI3K/Akt/mTOR signalling pathway in human HCC1806 cells assessed as reduction in phosphorylated mTOR expression at S2448 residue after 48 hrs by Western blot analysis; format: cell-based
HCC1806 [17] = assay: Induction of intracellular reactive oxygen species generation in human HCC1806 cells incubated for 48 hrs by DCFH2-DA staining based flow cytometeric analysis; format: functional, cell-based
HCC1806 [18] = assay: Inhibition of cell adhesion in human HCC1806 cells incubated for 48 hrs by phase contrast microscopy; format: functional, cell-based
HCC1806 [19] = assay: Antimigratory activity against human HCC1806 cells assessed as reduction in MMP2 expression at 50 to 200 nM after 48 hrs by Western blot analysis; format: functional, cell-based
HCC1806 [20] = assay: Suppression of FAK expression in human HCC1806 cells at 50 to 200 nM after 48 hrs by Western blot assay; format: functional, cell-based
[21] = target: Focal adhesion kinase 1 (Homo sapiens) (UniProt Q05397); assay: Inhibition of FAK phosphorylation at Tyr397 residue in human HCC1806 cells at 50 to 200 nM after 48 hrs by Western blot analysis; format: cell-based
HCC1806 [22] = assay: Antimigratory activity in human HCC1806 cells assessed as reduction in EGFR expression at 50 to 200 nM after 48 hrs by Western blot analysis; format: functional, cell-based
HCC1806 [23] = assay: Antitumor activity against human HCC1806 cells xenografted in iv dosed ICR mouse assessed as reduction in tumor volume administered once per day for 23 consecutive days and measured every 2 days; format: functional, organism-based
HCC1806 [24] = assay: Antitumor activity against human HCC1806 cells in ICR mouse assessed as reduction in tumor weight at 12.5 mg/kg, iv administered once per day for 23 consecutive days and measured every 2 days relative to control; format: functional; design: scale not given: the % may be the effect or the level left
HCC1806 [25] = assay: Antitumor activity against human HCC1806 cells in ICR mouse assessed as reduction in tumor weight at 25 mg/kg, iv administered once per day for 23 consecutive days and measured every 2 days relative to control; format: functional; design: scale not given: the % may be the effect or the level left
[26] = Toxicity in ICR mouse assessed as reduction in body weight at 12.5 to 25 mg/kg, iv administered once per day for 23 consecutive days and measured every 2 days; format: organism-based; conditions: in vivo, 48 h
HCC1806 [27] = assay: Antitumor activity against human HCC1806 cells in ICR mouse assessed as tumor shrinkage at 12.5 to 25 mg/kg, iv administered once per day for 23 consecutive days by hematoxylin and eosin staining based histopathological assay; format: functional, organism-based
HCC1806 [28] = assay: Antitumor activity against human HCC1806 cells in ICR mouse assessed as increase in apoptosis in tumor at 12.5 to 25 mg/kg, iv administered once per day for 23 consecutive days by hematoxylin and eosin staining based histopathological assay; format: functional, organism-based
HCC1806 [29] = assay: Antitumor activity against human HCC1806 cells in ICR mouse assessed as increase in apoptosis in tumor at 12.5 to 25 mg/kg, iv administered once per day for 23 consecutive days by TUNEL based immunohistochemical analysis; format: functional, organism-based
[30] = Toxicity in ICR mouse assessed as induction of morphological changes in lung at 25 mg/kg, iv administered once per day for 23 consecutive days; format: organism-based; conditions: in vivo
[31] = Toxicity in ICR mouse assessed as induction of morphological changes in kidney at 25 mg/kg, iv administered once per day for 23 consecutive days; format: organism-based; conditions: in vivo

Chain of Focal adhesion kinase 1 (Homo sapiens) (Q05397 2-1052 limits assumed): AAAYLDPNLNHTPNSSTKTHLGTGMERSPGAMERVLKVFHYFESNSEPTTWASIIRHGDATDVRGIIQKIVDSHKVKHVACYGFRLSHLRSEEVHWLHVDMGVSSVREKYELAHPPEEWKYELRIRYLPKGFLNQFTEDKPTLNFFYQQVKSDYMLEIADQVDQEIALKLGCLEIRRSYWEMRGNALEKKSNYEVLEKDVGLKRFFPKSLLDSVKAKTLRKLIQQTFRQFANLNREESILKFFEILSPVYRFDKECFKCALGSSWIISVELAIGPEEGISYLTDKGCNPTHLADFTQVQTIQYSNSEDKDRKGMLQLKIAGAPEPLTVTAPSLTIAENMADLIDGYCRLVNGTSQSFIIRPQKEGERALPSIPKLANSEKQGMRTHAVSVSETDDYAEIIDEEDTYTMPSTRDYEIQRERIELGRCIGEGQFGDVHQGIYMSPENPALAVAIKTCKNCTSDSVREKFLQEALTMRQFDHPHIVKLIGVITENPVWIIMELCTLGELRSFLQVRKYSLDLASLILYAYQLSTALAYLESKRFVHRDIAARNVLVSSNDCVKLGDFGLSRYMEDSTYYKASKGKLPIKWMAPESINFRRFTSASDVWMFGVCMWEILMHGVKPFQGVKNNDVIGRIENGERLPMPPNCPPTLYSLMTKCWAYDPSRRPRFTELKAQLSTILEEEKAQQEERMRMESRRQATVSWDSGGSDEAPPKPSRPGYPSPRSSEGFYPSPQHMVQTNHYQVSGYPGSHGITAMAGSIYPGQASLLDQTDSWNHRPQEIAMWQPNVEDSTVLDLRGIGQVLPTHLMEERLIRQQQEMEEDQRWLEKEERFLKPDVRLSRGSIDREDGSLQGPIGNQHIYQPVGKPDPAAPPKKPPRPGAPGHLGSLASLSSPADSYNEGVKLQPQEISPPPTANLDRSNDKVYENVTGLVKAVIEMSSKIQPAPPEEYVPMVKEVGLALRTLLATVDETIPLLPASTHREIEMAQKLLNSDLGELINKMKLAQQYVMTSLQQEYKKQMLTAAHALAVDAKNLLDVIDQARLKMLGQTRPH

With `C=C1C(=O)[C@@]23C(=O)[C@@H]4OC[C@]5(C=CCC(C)(C)[C@@H]45)[C@@H]2CC[C@@H]1[C@H]3OC(=O)/C=C/c1ccncc1` as the molecule, how does the Activity (HCC1806 [1]) read?
Its Activity is 54.97%.

And the “Ratio IC50” value (NCI/ADR-RES)?
The value was 20.

What about the Activity (HCC1806 [2]) of the same molecule?
The Activity was 15.94%.

And the pIC50 (SK-BR-3)?
The pIC50 was 6.66.

What about the pIC50 (MDA-MB-453) of the same molecule?
Its pIC50 is 6.48.

What about the viability at 50 µM (HCC1806 [3]) of the same molecule?
The viability at 50 µM was 82.2%.

What about the Activity (HCC1806 [4]) of the same molecule?
Its Activity is “Dose-dependent effect”.

And the pIC50 (DU-4475)?
Its pIC50 is 6.68.

And the pIC50 (MDA-MB-468)?
The pIC50 was 6.35.

What about the pIC50 (MDA-MB-231) of the same molecule?
Its pIC50 is 6.20.

And the Activity (HCC1806 [5])?
The Activity was “Dose-dependent effect”.

And the Activity (HCC1806 [6])?
Its Activity is “Dose-dependent effect”.

And the Activity (HCC1806 [7])?
The Activity was 14.87%.

And the Activity (HCC1806 [8])?
Its Activity is 0.46%.

And the Activity (HCC1806 [9])?
Its Activity is 3.61%.

What about the viability at 200 µM (HCC1806 [10]) of the same molecule?
The viability at 200 µM was 50.4%.

What about the Activity (HCC1806 [11]) of the same molecule?
Its Activity is 22.79%.

What about the Activity (HCC1806 [12]) of the same molecule?
Its Activity is “Dose-dependent effect”.

What about the Activity (HCC1806 [13]) of the same molecule?
The Activity was “Active”.

What about the inhibition [14] of the same molecule?
The inhibition was “Dose-dependent effect”.

What about the inhibition [15] of the same molecule?
The inhibition was “Dose-dependent effect”.

And the inhibition [16]?
Its inhibition is “Dose-dependent effect”.

What about the Activity (HCC1806 [17]) of the same molecule?
The Activity was “Dose-dependent effect”.

And the inhibition (HCC1806 [18])?
The inhibition was “Dose-dependent effect”.

And the Activity (HCC1806 [19])?
The Activity was “Active”.

What about the inhibition (HCC1806 [20]) of the same molecule?
Its inhibition is “inactive”.

What about the inhibition [21] of the same molecule?
Its inhibition is “Active”.

What about the Activity (HCC1806 [22]) of the same molecule?
The Activity was “Active”.

What about the Activity (HCC1806 [23]) of the same molecule?
The Activity was “Dose-dependent effect”.

What about the Activity (HCC1806 [24]) of the same molecule?
The Activity was 67.3%.

And the Activity (HCC1806 [25])?
The Activity was 74.1%.

And the Activity [26]?
The Activity was “Non-Toxic”.

And the Activity (HCC1806 [27])?
The Activity was “Active”.

And the Activity (HCC1806 [28])?
The Activity was “Active”.

And the Activity (HCC1806 [29])?
Its Activity is “Active”.

What about the Activity [30] of the same molecule?
The Activity was “Non-Toxic”.

What about the Activity [31] of the same molecule?
The Activity was “Non-Toxic”.
